Two compounds from US12122761B2, “2-azaspiro[3.4]octane derivatives as M4 agonists” (NOVARTIS AG, priority 2019, dated 2024) can be followed below.

For this experiment, the target named is T1, human cloned CHRM4 receptor (M4_CHO cells) (Homo sapiens, UniProt P08173).
T1 construct: expressed in transfected cells; host or cells: CHO-K1
T1 sequence (P08173 1-479): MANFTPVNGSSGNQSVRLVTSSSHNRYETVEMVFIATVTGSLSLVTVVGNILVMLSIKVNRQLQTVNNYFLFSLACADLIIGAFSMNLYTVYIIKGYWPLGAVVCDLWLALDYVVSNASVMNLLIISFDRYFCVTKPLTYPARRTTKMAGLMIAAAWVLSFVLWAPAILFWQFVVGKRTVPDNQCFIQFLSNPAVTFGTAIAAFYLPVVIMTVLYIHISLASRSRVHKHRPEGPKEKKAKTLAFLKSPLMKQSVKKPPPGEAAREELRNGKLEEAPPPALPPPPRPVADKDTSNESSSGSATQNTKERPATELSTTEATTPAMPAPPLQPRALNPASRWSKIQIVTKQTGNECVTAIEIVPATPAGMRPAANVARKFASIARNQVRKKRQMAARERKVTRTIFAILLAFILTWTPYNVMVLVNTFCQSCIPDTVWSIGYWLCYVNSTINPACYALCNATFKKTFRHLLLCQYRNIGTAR
Put plainly: CHRM4 Ca++ Flux Assay (agonist mode, FDSS 7000EX). Format: cell-based. Particulars: for Emax: Percent Activity, read-out: M4 FDSS PA; for EC50: geometric mean if tested more than once, read-out: M4 FDSS EC50. In a few lines: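 Agonist-mode response was expressed as percent of the Carbachol EC100 and fitted with four-parameter nonlinear regression over an 11-point triplicate dose series. Intracellular Ca++ was tracked for 3 min by fluorescent dye in CHO-K1 cells stably expressing human CHRM4. Cells were preincubated 60 min with 20 μM ATP in buffer containing 2.5 mM probenecid.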

As for `CC(C)(O)COc1ccccc1C1CCN([C@@H]2CCC3(C2)CN(C(=O)C2COC2)C3)CC1` [Example 7L, (R)-(6-(4-(2-(2-hydroxy-2-methylpropoxy)phenyl)piperidin-1-yl)-2-azaspiro[3.4]octan-2-yl)(oxetan-3-yl)methanone], the Emax turned out to be 58% and the EC50 came to 20 nM.
For `O=C(C1COC1)N1CC2(CC[C@@H](N3CCC(c4ccccc4OC(F)(F)F)CC3)C2)C1` [Example 12A, (R)-oxetan-3-yl(6-(4-(2-(trifluoromethoxy)phenyl)piperidin-1-yl)-2-azaspiro[3.4]octan-2-yl)methanone], the Emax was 73% and the EC50 is 2 nM.
